The target of assay [1] is T1, Eukaryotic elongation factor 2 kinase (Homo sapiens) (UniProt O00418).
T1 sequence (whole entry): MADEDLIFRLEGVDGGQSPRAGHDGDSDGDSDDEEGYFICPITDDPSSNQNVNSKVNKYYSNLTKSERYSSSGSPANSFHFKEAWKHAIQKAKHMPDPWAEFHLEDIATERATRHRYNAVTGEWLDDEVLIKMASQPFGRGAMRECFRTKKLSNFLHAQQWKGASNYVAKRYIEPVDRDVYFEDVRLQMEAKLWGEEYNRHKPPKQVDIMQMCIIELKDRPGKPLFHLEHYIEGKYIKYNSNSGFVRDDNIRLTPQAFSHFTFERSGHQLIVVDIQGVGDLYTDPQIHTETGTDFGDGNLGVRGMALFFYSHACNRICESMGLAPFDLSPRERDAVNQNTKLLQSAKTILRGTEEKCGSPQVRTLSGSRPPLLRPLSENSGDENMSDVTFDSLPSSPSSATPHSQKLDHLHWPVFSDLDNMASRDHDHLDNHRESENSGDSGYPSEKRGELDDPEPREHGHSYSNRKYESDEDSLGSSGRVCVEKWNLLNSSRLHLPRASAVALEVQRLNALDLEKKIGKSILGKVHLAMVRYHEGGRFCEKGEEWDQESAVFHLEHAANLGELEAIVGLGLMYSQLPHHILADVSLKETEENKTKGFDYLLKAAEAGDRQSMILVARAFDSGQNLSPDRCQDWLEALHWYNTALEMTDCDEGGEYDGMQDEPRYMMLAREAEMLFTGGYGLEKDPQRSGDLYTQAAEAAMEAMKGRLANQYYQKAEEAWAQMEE
Put plainly: Inhibition of eEF2K ATP labeling site harbouring YIKYNSNSGFVR in human A-375 cells at 0.5 uM by KiNativ Profiling analysis relative to control. The assay is classed as cell-based.

Assay [2] concerns the target T2, Serine/threonine-protein kinase STK11 (Homo sapiens) (UniProt Q15831).
T2 sequence (whole entry): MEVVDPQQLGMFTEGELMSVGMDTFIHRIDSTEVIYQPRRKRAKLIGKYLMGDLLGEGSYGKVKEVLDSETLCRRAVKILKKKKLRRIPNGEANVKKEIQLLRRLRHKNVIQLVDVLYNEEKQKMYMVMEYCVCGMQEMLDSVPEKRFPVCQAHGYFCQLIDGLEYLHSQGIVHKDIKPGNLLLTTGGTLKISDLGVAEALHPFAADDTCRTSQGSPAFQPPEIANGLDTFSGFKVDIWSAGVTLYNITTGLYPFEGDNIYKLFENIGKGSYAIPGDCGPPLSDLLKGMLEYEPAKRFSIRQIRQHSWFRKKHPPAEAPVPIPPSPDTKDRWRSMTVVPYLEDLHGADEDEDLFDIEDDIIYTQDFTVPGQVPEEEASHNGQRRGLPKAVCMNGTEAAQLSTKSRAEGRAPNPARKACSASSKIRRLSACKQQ
As to the kind of experiment: Inhibition of LKB1 (unknown origin) at 10 uM by Ambit Kinomescan binding assay.

Assay [3] concerns the target Tyrosine-protein kinase FRK (Homo sapiens) (UniProt P42685). Put plainly: Inhibition of FRK (unknown origin) at 10 uM by Ambit Kinomescan binding assay relative to control.
Assay [4] addresses T3, Serine/threonine-protein kinase ULK3 (Homo sapiens) (UniProt Q6PHR2).
T3 sequence (whole entry): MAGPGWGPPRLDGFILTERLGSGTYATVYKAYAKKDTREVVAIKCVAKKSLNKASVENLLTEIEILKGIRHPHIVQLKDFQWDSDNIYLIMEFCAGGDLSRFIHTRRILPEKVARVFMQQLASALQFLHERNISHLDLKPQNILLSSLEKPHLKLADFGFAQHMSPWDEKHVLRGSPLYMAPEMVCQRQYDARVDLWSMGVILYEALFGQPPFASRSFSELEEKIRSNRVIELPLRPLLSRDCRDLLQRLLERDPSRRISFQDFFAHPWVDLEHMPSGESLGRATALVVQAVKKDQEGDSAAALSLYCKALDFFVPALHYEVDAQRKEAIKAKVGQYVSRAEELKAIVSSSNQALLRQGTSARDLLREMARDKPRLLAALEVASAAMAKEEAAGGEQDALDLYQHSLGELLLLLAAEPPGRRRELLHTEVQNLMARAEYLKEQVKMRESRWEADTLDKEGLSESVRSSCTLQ
As to the kind of experiment: Inhibition of ULK3 Lys2 labeling site in human Huh-7 cell lysate at 1 uM by KiNativ Profiling analysis relative to control. The assay is classed as subcellular.

The target in assay [5] is T4, Eukaryotic translation initiation factor 2-alpha kinase 3 (Homo sapiens) (UniProt Q9NZJ5).
T4 sequence (whole entry): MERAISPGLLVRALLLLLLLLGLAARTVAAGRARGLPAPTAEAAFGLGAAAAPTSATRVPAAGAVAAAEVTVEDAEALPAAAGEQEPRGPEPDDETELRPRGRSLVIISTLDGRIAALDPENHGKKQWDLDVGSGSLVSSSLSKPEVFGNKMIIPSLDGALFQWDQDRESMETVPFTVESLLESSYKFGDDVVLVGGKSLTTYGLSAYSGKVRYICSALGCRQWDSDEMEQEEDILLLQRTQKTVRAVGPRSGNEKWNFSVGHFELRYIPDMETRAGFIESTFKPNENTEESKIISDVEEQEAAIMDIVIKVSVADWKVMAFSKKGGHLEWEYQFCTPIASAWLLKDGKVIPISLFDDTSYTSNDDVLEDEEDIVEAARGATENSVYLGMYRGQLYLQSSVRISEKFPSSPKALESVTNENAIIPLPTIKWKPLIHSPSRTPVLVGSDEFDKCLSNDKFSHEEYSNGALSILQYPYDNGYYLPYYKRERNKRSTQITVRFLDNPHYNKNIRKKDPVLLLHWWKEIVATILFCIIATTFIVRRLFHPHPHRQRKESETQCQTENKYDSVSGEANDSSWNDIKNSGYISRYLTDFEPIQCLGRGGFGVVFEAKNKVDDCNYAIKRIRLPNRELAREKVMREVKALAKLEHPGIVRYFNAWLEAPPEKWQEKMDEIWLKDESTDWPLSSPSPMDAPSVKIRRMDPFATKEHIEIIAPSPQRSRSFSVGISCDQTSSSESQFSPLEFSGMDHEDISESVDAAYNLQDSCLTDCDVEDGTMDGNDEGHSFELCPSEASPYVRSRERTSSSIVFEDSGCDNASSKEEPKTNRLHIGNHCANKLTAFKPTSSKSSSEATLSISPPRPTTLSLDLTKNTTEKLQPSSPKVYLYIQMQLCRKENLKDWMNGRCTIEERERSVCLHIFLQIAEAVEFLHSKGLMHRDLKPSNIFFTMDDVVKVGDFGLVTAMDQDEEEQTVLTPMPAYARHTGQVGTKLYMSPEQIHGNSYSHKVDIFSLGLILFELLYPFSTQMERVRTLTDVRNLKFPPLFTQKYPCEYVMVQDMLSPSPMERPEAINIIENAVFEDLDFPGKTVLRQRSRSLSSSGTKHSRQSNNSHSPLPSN
As to the kind of experiment: Inhibition of PEK Lys2 labeling site in human Huh-7 cells at 1 uM by KiNativ Profiling analysis relative to control. The assay is classed as cell-based.

Activity calls are given as the source filed them. The rule behind the calls is not given here.

Sequence of Tyrosine-protein kinase FRK (Homo sapiens) (P42685 whole entry): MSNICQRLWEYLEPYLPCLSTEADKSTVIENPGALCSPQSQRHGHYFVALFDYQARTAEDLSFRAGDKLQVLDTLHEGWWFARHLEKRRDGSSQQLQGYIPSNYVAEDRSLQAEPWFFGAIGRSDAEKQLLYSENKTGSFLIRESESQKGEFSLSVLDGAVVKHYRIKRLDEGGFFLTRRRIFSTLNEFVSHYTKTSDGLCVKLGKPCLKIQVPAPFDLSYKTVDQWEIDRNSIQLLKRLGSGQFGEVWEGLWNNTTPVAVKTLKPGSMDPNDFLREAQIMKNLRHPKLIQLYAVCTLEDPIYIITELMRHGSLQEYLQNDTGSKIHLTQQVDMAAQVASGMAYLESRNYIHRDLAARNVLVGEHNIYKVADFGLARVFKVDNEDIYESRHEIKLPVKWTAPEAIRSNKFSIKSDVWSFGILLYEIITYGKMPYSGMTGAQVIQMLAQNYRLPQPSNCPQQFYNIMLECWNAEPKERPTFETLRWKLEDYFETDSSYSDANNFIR

In general, inhibition refers to the drop in the measured response relative to a control, in per cent. Take `CCN1CCN(Cc2ccc(NC(=O)c3ccc(C)c(/C=C/c4cnc5[nH]ccc5c4OC)c3)cc2C(F)(F)F)CC1`: in assay [1], the inhibition is -8.5%.
As to `CCN1CCN(Cc2ccc(NC(=O)c3ccc(C)c(Oc4ccnc5[nH]ccc45)c3)cc2C(F)(F)F)CC1`, the inhibition result in assay [2] was “inactive”. The inhibition in assay [3] is 0.7%.
As to `CNc1cc(Oc2cc(C(=O)Nc3cc(N4CCN(C)CC4)cc(C(F)(F)F)c3)ccc2C)ncn1`, the inhibition in assay [4] amounted to 2.3%; in assay [5], 16.8%.

The values above are taken from ChEMBL document CHEMBL5696442, “Discovery of type II inhibitors of TGFβ-activated kinase 1 (TAK1) and mitogen-activated protein kinase kinase kinase kinase 2 (MAP4K2)” (J Med Chem, 2015).
